Source: patent publication US20180221241A1, “ENHANCEMENT OF VASODILATORY FUNCTION AND LOWERING OF EFFECTIVE SYSTEMIC VASCULAR RESISTANCE” (THE GOVERNORS OF THE UNIVERSITY OF ALBERTA, priority 2015, published 2018)

Test system: second order mesenteric resistance arteries
Assay: Pressure myograph system, vessel lumen diameter under controlled barometric pressure
Set-up: species or system mice
Conditions: for maximal increase in lumen diameter, cumulative response curve to methylcholine: doses 1 nM to 1 μM, barometric pressure PB674; for constriction or relaxation of vessel to drug administered in the bath: vessels immersed in Ca2+-free solution, n=7, p>0.05
Description: Four-month-old male C57 mice were given access to standard chow and water ad-libitum and were housed on a 12 h-12 h light-dark cycle. Mice were euthanized through sodium pentobarbital administered interperitonially, and their mesenteries were removed and placed in freshly prepared cold physiological salt solution (10 HEPES, 5.5 glucose, 1.56 CaCl2, 4.7 KCl, 142 NaCl, 1.17 MgSO4, 1.18 KH2PO4, pH 7.5.).
Two second order resistance arteries were dissected of surrounding connective tissue and mounted within a pressure myograph system (Living Systems Instrumentation; Burlington, Vt.). Vessels were tied onto glass cannulas with microscopic suture thread segments. Each vessel was immersed in a physiological salt solution bath, maintained at a temperature of 37° C. with the aid of a built-in temperature feedback mechanism connected to a miniature heating system. Intravascular pressure and flow were measured and alterable using pressure and flow control systems. A peristaltic pump was used to maintain specific rates of flow across the lumens vessels mounted in the pressure myograph system. To mimic physiological conditions as best as possible, the vessels were oriented as such that flow would be applied in the same direction as in vivo blood flow. The vessels were maintained at a perfusion pressure of 60 mmHg, the approximated in vivo mesentery arterial pressure of mice.
Vessels were exposed to phenylephrine and methylcholine before the start of every protocol to ensure the vessel was intact and capable of responding to pressure and flow stimuli. In some protocols, one bath of the pressure myograph was infused with inhibitors of nitric oxide synthase and prostacyclins to inhibit the action of these two major endogenous endothelial vasodilators. This was performed in order to assess the effect of barometric pressure on mesenteric arteries isolated from the vasoactive influences of nitric oxide and prostacyclins.
The entire myograph system was enclosed within a barometric pressure controlled chamber, capable of being sealed and pressure-controlled when necessary (FIG. 11). A control pressure was established on the pressure sensor in relation to the atmospheric pressure denoted by the meteorological service of Canada (Edmonton station). Pressure conditions PB714 and PB674 were assigned as 40 mmHg and 80 mmHg below atmospheric pressure, respectively. The conditions were maintained through a pressure apparatus.
A pressure transducer and flow regulator coupled with a peristaltic pump mechanisms was set up so as to be manipulated from outside upon sealing the barometric pressure chamber around the myograph system. […]
Vessel diameters and wall thicknesses were recorded with the help of a microscope-coupled micrometer. […]

Row | SMILES | maximal increase in lumen diameter, cumulative response curve to methylcholine (with L-NAME and meclofenamate (FIG. 4B)) [%] | maximal increase in lumen diameter, cumulative response curve to methylcholine (without inhibitors (FIG. 4A)) [%] | constriction or relaxation of vessel to drug administered in the bath
1 | CC(=O)OC(C)C[N+](C)(C)C (stereo not shown) | 133 | 122 | no constriction to phenylephrine or relaxation
2 | CNC[C@H](O)c1cccc(O)c1 [phenylephrine] | – | – | no constriction
